Values joined by “and” are separate entries in the source; they are usually repeats but may differ in a detail not shown here. Identical values can stand only once.
Legend:
[1] = system: G542X#10-HBE5x5; assay: Read-through of a premature termination codon, G542X#10-HBE5x5 (Table 3); format: cell-based; settings: with G418
Method: (§1) The compounds shown in Table 1 were evaluated for their ability to stimulate read-through of a premature termination codon, and their respective activities are shown in Tables 2 and 3 below.

[2] = system: W134X-CF#14 FRT; assay: Read-through of a premature termination codon, W134X-CF#14 FRT data, with G418; format: cell-based; settings: in presence of G418
Method: as §1

| Compound | EC50 [1] | EC50 [2] [µM] |
| --- | --- | --- |
| CCn1c(=O)c(C(=O)CN(CC(N)=O)C(C)C)c(N)n(Cc2ccccc2)c1=O [1.1] | ≥ 100 µM |  |
| CCOC(=O)C1CCN(CC(=O)c2c(N)n(Cc3ccccc3)c(=O)n(CC)c2=O)CC1 [1.6] | ≥ 100 µM |  |
| CCn1c(=O)c(C(=O)CNC2CCOCC2)c(N)n(Cc2ccccc2)c1=O [1.10] | ≥ 100 µM |  |
| CCn1c(=O)c(C(=O)CN2CCOCC2)c(N)n(Cc2ccccc2)c1=O [1.11] | ≥ 100 µM |  |
| CCn1c(=O)c(C(=O)CN[C@H](C(=O)OC)C(C)C)c(N)n(Cc2ccccc2)c1=O [1.15] | ≥ 100 µM |  |
| CCn1c(=O)c(C(=O)CN[C@@H](Cc2cnc[nH]2)C(=O)OC)c(N)n(Cc2ccccc2)c1=O [1.17] | ≥ 100 µM |  |
| CCOC(=O)CN(CC(=O)c1c(N)n(Cc2ccccc2)c(=O)n(CC)c1=O)C(C)C [1.18, ethyl 2-((2-(6-amino-1-benzyl-3-ethyl-2,4-dioxo-1,2,3,4-tetrahydropyrimidin-5-yl)-2-oxoethyl)(isopropyl)amino)acetate] | ≥ 100 µM |  |
| CCn1c(=O)c(C(=O)CN(C)C(C)C)c(N)n(Cc2ccccc2)c1=O [1.20] | ≥ 100 µM |  |
| CCn1c(=O)c(C(=O)CN2CCC[C@H]2C(=O)OC)c(N)n(Cc2ccccc2)c1=O [1.23] | ≥ 100 µM |  |
| CCn1c(=O)c(C(=O)CN(CC(N)=O)C2CC2)c(N)n(Cc2ccccc2)c1=O [1.35] | ≥ 100 µM |  |
| CCn1c(=O)c(C(=O)CN(CC(=O)NC)C(C)C)c(N)n(Cc2ccccc2)c1=O [1.39] | ≥ 100 µM |  |
| CCn1c(=O)c(C(=O)CN(CC(=O)N(C)C)C(C)C)c(N)n(Cc2ccccc2)c1=O [1.40] | ≥ 100 µM |  |
| CCCNC(=O)CN(C)CC(=O)c1c(N)n(Cc2ccccc2)c(=O)n(C)c1=O [1.42] | ≥ 100 µM |  |
| CCn1c(=O)c(C(=O)CN2CCCCC2C(N)=O)c(N)n(Cc2ccccc2)c1=O (stereo not drawn) [1.48] | ≥ 100 µM |  |
| NC(=O)C1CCCCN1CC(=O)c1c(N)n(Cc2ccccc2)c(=O)n(Cc2ccccc2)c1=O (stereo not drawn) [1.50] | 30 µM |  |
| NC(=O)C1CCCCN1CC(=O)c1c(N)n(Cc2ccccc2)c(=O)n(C2CCCCC2)c1=O (stereo not drawn) [1.51] | ≥ 100 µM |  |
| NC(=O)C1CCCCN1CC(=O)c1c(N)n(-c2ccc(F)cc2)c(=O)n(Cc2ccccc2)c1=O (stereo not drawn) [1.65] | ≥ 100 µM |  |
| CCN(CC)C(=O)C1CCCN(CC(=O)c2c(N)n(Cc3ccccc3)c(=O)n(CC)c2=O)C1 (stereo not drawn) [1.66] | ≥ 100 µM |  |
| CCn1c(=O)c(C(=O)CN2CCCCC2C(=O)N(C)C)c(N)n(Cc2ccccc2)c1=O (stereo not drawn) [1.67] | ≥ 100 µM |  |
| CN(C)C(=O)C1CCCCN1CC(=O)c1c(N)n(Cc2ccc(F)cc2)c(=O)n(Cc2ccc(F)cc2)c1=O (stereo not drawn) [1.73] | 62.9 µM |  |
| CC(C)N(CC(=O)c1c(N)n(Cc2ccc(F)cc2)c(=O)n(Cc2ccc(F)cc2)c1=O)CC(=O)N(C)C [1.74] | ≥ 100 µM |  |
| CCn1c(=O)c(C(=O)CN2CCCCC2C(=O)N2CCOCC2)c(N)n(Cc2ccccc2)c1=O (stereo not drawn) [1.87] | ≥ 100 µM |  |
| CCn1c(=O)c(C(=O)CN2CCCCC2C(N)=O)c(N)n(Cc2ccc(F)cc2)c1=O (stereo not drawn) [1.103] | ≥ 100 µM |  |
| NC(=O)C1CCCCN1CC(=O)c1c(N)n(Cc2cccc(Cl)c2)c(=O)n(Cc2cccc(Cl)c2)c1=O (stereo not drawn) [1.104] | 25 µM |  |

| Compound | EC50 [1] | EC50 [2] [µM] |
| --- | --- | --- |
| CCn1c(=O)c(C(=O)CN2CCCCC2c2nc3ccccc3n2C)c(N)n(Cc2ccccc2)c1=O (stereo not drawn) [1.105] | ≥ 100 µM |  |
| CCn1c(=O)c(C(=O)CN2CCCCC2c2nc3ccccc3[nH]2)c(N)n(Cc2ccccc2)c1=O (stereo not drawn) [1.106] | ≥ 100 µM |  |
| CCn1c(=O)c(C(=O)CN2CCCC[C@@H]2C(N)=O)c(N)n([C@H](C)c2ccccc2)c1=O [1.125] | ≥ 100 µM |  |
| CCn1c(=O)c(C(=O)CN2CCCC[C@@H]2C(=O)N(C)C)c(N)n(Cc2ccc(F)cc2)c1=O [1.126] | ≥ 100 µM |  |
| CCn1c(=O)c(C(=O)CN2CCCC[C@@H]2C(=O)N2CCCCC2)c(N)n(Cc2ccc(F)cc2)c1=O [1.129] | ≥ 100 µM |  |
| CCn1c(=O)c(C(=O)CN2CCCC[C@@H]2C(=O)N2CCOCC2)c(N)n(Cc2ccc(F)cc2)c1=O [1.130] | ≥ 100 µM |  |
| CCn1c(=O)c(C(=O)CN(CC(N)=O)C(C)C)c(N)n(Cc2ccc(F)cc2)c1=O [1.133] | 50.5 µM |  |
| CCn1c(=O)c(C(=O)CN(CC(=O)N(C)C)C(C)C)c(N)n(Cc2ccc(F)cc2)c1=O [1.139] | ≥ 100 µM |  |
| CCn1c(=O)c(C(=O)CN2CCCCC2C(N)=O)c(N)n(Cc2ccc(F)c(OC)c2)c1=O (stereo not drawn) [1.164] | ≥ 100 µM |  |
| CCn1c(=O)c(C(=O)CN2CCCC[C@@H]2C(=O)N2CCC(F)(F)CC2)c(N)n(Cc2ccc(F)cc2)c1=O [1.168] | ≥ 100 µM |  |
| CCn1c(=O)c(C(=O)CN2CCCC[C@@H]2C(=O)NCC2CC2)c(N)n(Cc2ccc(F)cc2)c1=O [1.174] | ≥ 100 µM |  |
| CCn1c(=O)c(C(=O)CNC(COC)c2ccccc2)c(N)n(Cc2ccc(F)cc2)c1=O (stereo not drawn) [1.180] | 73.2 µM |  |
| CCn1c(=O)c(C(=O)CNC(CN2CCCC2=O)c2ccccc2)c(N)n(Cc2ccc(F)cc2)c1=O (stereo not drawn) [1.181] | ≥ 100 µM |  |
| CCn1c(=O)c(C(=O)CN[C@H](C(N)=O)C(C)C)c(N)n(Cc2ccc(F)cc2)c1=O [1.187] | ≥ 100 µM |  |
| CCn1c(=O)c(C(=O)CN(C)C)c(N)n(Cc2cc(Cl)c(F)cc2F)c1=O [1.198] | ≥ 100 µM |  |
| CCn1c(=O)c(C(=O)CN2CCCCC2C)c(N)n(Cc2ccc(F)cc2)c1=O (stereo not drawn) [1.200] |  | 34.9 |
| CCn1c(=O)c(C(=O)CNCCC(N)=O)c(N)n(Cc2ccc(F)cc2)c1=O [1.201] | ≥ 100 µM |  |
| CCC(C)C1CCCCN1CC(=O)c1c(N)n(Cc2ccc(F)cc2)c(=O)n(CC)c1=O (stereo not drawn) [1.202] |  | 5.51 |
| CCn1c(=O)c(C(=O)CN(CCC(N)=O)C(C)C)c(N)n(Cc2ccc(F)cc2)c1=O [1.204] |  | 12.5 |
| CCn1c(=O)c(C(=O)CNc2cccc(C(N)=O)c2)c(N)n(Cc2ccc(F)cc2)c1=O [1.208] |  | 11.4 |
| CCn1c(=O)c(C(=O)CN2CCNC(=O)C2)c(N)n(Cc2ccc(F)cc2)c1=O [1.209] | ≥ 100 µM |  |
| CCn1c(=O)c(C(=O)CN2CCCCC2C2CCC2)c(N)n(Cc2ccc(F)cc2)c1=O (stereo not drawn) [1.210] |  | 6.68 |
| CCn1c(=O)c(C(=O)CN2CCCNC2=O)c(N)n(Cc2ccc(F)cc2)c1=O [1.212] | ≥ 100 µM |  |
| CCn1c(=O)c(C(=O)CN(CC(=O)OC)C(C)C)c(N)n(Cc2ccc(F)cc2)c1=O [1.213] |  | 10.2 |

| Compound | EC50 [1] | EC50 [2] [µM] |
| --- | --- | --- |
| CCn1c(=O)c(C(=O)CN2CCCN(C)C2=O)c(N)n(Cc2ccc(F)cc2)c1=O [1.215] | ≥ 100 µM |  |
| CCn1c(=O)c(C(=O)CN2CCN(C)C(=O)C2)c(N)n(Cc2ccc(F)cc2)c1=O [1.216] | ≥ 100 µM |  |
| CCn1c(=O)c(C(=O)CN2CCCC[C@@H]2C(N)=O)c(N)n(Cc2ccc(O)cc2)c1=O [1.217] | ≥ 100 µM |  |
| NC(=O)[C@H]1CCCCN1CC(=O)c1c(N)n(Cc2ccc(F)cc2)c(=O)n(CC2CC2)c1=O [1.218] | ≥ 100 µM |  |
| CCn1c(=O)c(C(=O)CN(c2cccc(C(N)=O)c2)C(C)C)c(N)n(Cc2ccc(F)cc2)c1=O [1.219] | 48.5 µM |  |
| CCn1c(=O)c(C(=O)CN2CCc3cccc(C(=O)OC)c3C2)c(N)n(Cc2ccc(F)cc2)c1=O [1.220] | ≥ 100 µM |  |
| CCn1c(=O)c(C(=O)CN2CCC(O)CC2C(N)=O)c(N)n(Cc2ccc(F)cc2)c1=O (stereo not drawn) [1.221] | ≥ 100 µM |  |
| CCn1c(=O)c(C(=O)CN2CCc3cccc(C(N)=O)c3C2)c(N)n(Cc2ccc(F)cc2)c1=O [1.222] | ≥ 100 µM |  |
| CCn1c(=O)c(C(=O)CN2CCCc3c(C(N)=O)cccc32)c(N)n(Cc2ccc(F)cc2)c1=O [1.223] | ≥ 100 µM |  |
| CCn1c(=O)c(C(=O)CN2CCCc3ccc(C(N)=O)cc32)c(N)n(Cc2ccc(F)cc2)c1=O [1.224] | ≥ 100 µM |  |
| CCn1c(=O)c(C(=O)CNC2CCC(=O)NC2=O)c(N)n(Cc2ccc(F)cc2)c1=O (stereo not drawn) [1.226] | ≥ 100 µM |  |
| CCn1c(=O)c(C(=O)CNc2ccc(C)cc2)c(N)n(Cc2ccc(F)cc2)c1=O [1.227] | ≥ 100 µM |  |
| NC(=O)C1CCCCN1CC(=O)c1c(N)n(Cc2ccc(F)cc2)c(=O)n(CCC(=O)O)c1=O (stereo not drawn) [1.228] | ≥ 100 µM |  |
| CCn1c(=O)c(C(=O)CN2CCCC[C@H]2C(N)=O)c(N)n(Cc2ccc(F)cc2)c1=O [2.1] | ≥ 30 µM |  |
| CCn1c(=O)c(C(=O)CN2CCCC[C@@H]2C(=O)OC)c(N)n(Cc2ccc(F)cc2)c1=O [2.2] | ≥ 30 µM |  |
| CCn1c(=O)c(C(=O)CN2CCCC[C@@H]2C(N)=O)c(N)n(Cc2ccccc2F)c1=O [2.3] | ≥ 30 µM |  |
| CCN(CC)C(=O)[C@H]1CCCCN1CC(=O)c1c(N)n(Cc2ccc(F)cc2)c(=O)n(CC)c1=O [2.4] | ≥ 30 µM |  |
| CCn1c(=O)c(C(=O)CN2CCCC[C@@H]2C(=O)N2CCCC2)c(N)n(Cc2ccc(F)cc2)c1=O [2.5] | ≥ 30 µM |  |
| CCn1c(=O)c(C(=O)CN2CCCC[C@@H]2C(=O)NC)c(N)n(Cc2ccc(F)cc2)c1=O [2.6] | ≥ 30 µM |  |
| CCn1c(=O)c(C(=O)CN2CCCC[C@@H]2C(N)=O)c(N)n(CCc2ccc(F)cc2)c1=O [2.7] | ≥ 30 µM |  |
| CCn1c(=O)c(C(=O)CN2CCCC[C@@H]2C(N)=O)c(N)n(Cc2cccc(C)n2)c1=O [2.8] | ≥ 30 µM |  |
| CCn1c(=O)c(C(=O)CN2CCCC[C@@H]2C(N)=O)c(N)n(Cc2cccc(F)c2)c1=O [2.10] | ≥ 30 µM |  |
| CCn1c(=O)c(C(=O)CN2CCCC[C@@H]2C(N)=O)c(N)n(Cc2ccc(F)cc2F)c1=O [2.11] | ≥ 30 µM and 18.2 µM |  |
| CCn1c(=O)c(C(=O)CN2CCCC[C@@H]2C(N)=O)c(N)n(Cc2ccc(C(F)F)cc2)c1=O [2.12] | ≥ 30 µM |  |

Reference: patent publication US12486254B2, “Uracil derivatives for stimulating read-through of premature termination codons” (Southern Research Institute, priority 2022, dated 2025)
